Experimental data published in EP4458358A1, “PYRIDAZINE COMPOUNDS FOR ANTIFIBROTIC THERAPY” (Tietze Chemical Consulting UG, priority 2023, dated 2024).

Assays:
Assay type in all cases: cell-based
HRO159N = assay: ELISA of secreted pro-collagen I alpha 1 (Type I Collagen) from human dermal fibroblasts HRO159N; conditions: 250 µg
Method: (§1) Compounds reconstitution and stock solution: Prior to treatment, DMSO was diluted in PMS until 0,1% DMSO was made. Each compound was solved in 0,1% DMSO (3: 2,5 mg/mL, 1: 2.5 mg/mL, 10: 1 mg/mL, 5: 1mg/mL, 7: 0,6 mg/mL, 16: 1 mg/mL 17: 1 mg/mL, 44: 0,6 mg/mL, 36: 1mg/mL.
(§2) Next the different stock solution with 150 µg and 250 µg of each compound per 1 ml culture solution was made by adding the 0,1% DMSO compound solution in the right amount to culture solution (DMEM with 10% FCS and 1% penicillin-streptomycin).
(§3) Three different cell lines were used for the experiments. GM637 is an immortalized cell line originated from human skin fibroblasts, bought in 2001, UKE1 and […] are cell lines originated from human dermal fibroblasts (dog ear) nurtured from patients, between 60 and 80 years old being completely anonymized at the clinic for dermatology, Rostock.
(§4) The cells lines were thawed and were cultured in Dulbeco's modified Eagel's medium (DMEM, Gibcon, USA) supplemented with 10% fetal bovine serum (FBS, Gibco, Germany) and 1% penicillin-streptomycin (PS, Gibco, USA) at 37 °C in a humidified atmosphere with 5% CO2 until a sufficient number of cells were culture in T75 culture bottles. After reaching a confluence of 80% to 90%, the cells were separated using trypsin and counted. Next 100.000 cells were planted in each well of a 6 well plate in replicates, washed and the DMEM solution with 150 µg and 250 µg/ml substance/DMEM and DMEM with no substance as control was added.
(§5) After 48h and after 72h 100 µl supernatant of each well was taken, labelled and frozen at -20° degree Celsius. Prior to perform ELISA the medium was depending on the cell line diluted 1:50 or 1:100 with PBS, otherwise the concentration of collagen fibers was too high to be measured.
(§6) The media containing the secretion of the different human dermal fibroblasts GM637, UKE1, and HRO159N were collected after 48h and 72h treatment. Secretion of pro-collagen 1 was assessed with human pro-collagen I alpha 1 DuoSet ELISA (R&D systems, USA) To prepare the Elisa plate, Human pro-Collagen I a capture antibody was diluted in ELISA plate-coating buffer at 4µg/mL working concentration. 100 µl of diluted Capture antibody was added to 96-well microplates and incubated over night at room temperature. After three times washing with Wash Buffer, microplates were blocked by adding 300 µl of Reagent Diluent for 1 hour at room temperature. To proceed the ELISA Human pro-collagen I α1 Standards were diluted in Reagent Diluent (range between 31,3 pg/mL - 2000 pg/mL) and 100 µl of standards or conditioned mediums were added to designated wells. Microplates were incubated at room temperature for 2 hours. Human Pro-collagen I α1 Detection Antibody was prepared in Reagent Diluent at […] working concentration and 100 µl of diluted Detection Antibody was applied for 2 hours at room temperature after extensive washing. Then, working solution of Streptavidin-HRP with Reagent Diluent was prepared by diluting 1:40 and added into each well. After 20 minutes at room temperature incubation, microplates were washed and applied with 100 µl of Substrate Solution for 20 minutes followed by Stop Solution after washing. Finally, signals were measured at 450 nm absorbance by PHomo Microplate Reader (Autobio, China) The amount of pro-collagen 1 was quantified by extrapolating the signal into a linear range of a pro-collagen 1 standard curve. Screening compounds were typically tested at concentration of 150 and 250 µg/mL. The dose response data for each compound and the different cell lines were obtained by nonlinear regression analysis using Prism 9 software (GraphPad, La Jolla, USA).

GM637 = assay: ELISA of secreted pro-collagen I alpha 1 (Type I Collagen) from human dermal fibroblasts GM637
Method: as §1, §2, §3, §4, §5, §6

UKE1 = assay: ELISA of secreted pro-collagen I alpha 1 (Type I Collagen) from human dermal fibroblasts UKE1
Method: as §1, §2, §3, §4, §5, §6

MRCVI = assay: ELISA of secreted pro-collagen I alpha 1 (Type I Collagen) from human lung fibroblast MRCVI
Method: as §1, §2
As cell line MRCV1 was used, which is an immortalized cell line originated from human lung fibroblast, bought in 2001.
as §4, with “cell line was” for “cells lines were”, “and” for “and were”
as §5
The medium containing the secretion of the human lung fibroblast MRCVI was collected after 48h and 72h treatment. Secretion of pro-collagen 1 was assessed with human pro-collagen I alpha 1 DuoSet ELISA (R&D systems, USA) To prepare the Elisa plate, Human pro-Collagen I a capture antibody was diluted in ELISA plate-coating buffer at 4µg/mL working concentration. 100 µl of diluted Capture antibody was added to 96-well microplates and incubated over night at room temperature. After three times washing with Wash Buffer, microplates were blocked by adding 300 µl of Reagent Diluent for 1 hour at room temperature. To proceed the ELISA Human pro-collagen I α1 Standards were diluted in Reagent Diluent (range between 31,3 pg/mL - 2000 pg/mL) and 100 µl of standards or conditioned mediums were added to designated wells. Microplates were incubated at room temperature for 2 hours. Human Pro-collagen I α1 Detection Antibody was prepared in Reagent Diluent at […] working concentration and 100 µl of diluted Detection Antibody was applied for 2 hours at room temperature after extensive washing. Then, working solution of Streptavidin-HRP with Reagent Diluent was prepared by diluting 1:40 and added into each well. After 20 minutes at room temperature incubation, microplates were washed and applied with 100 µl of Substrate Solution for 20 minutes followed by Stop Solution after washing. Finally, signals were measured at 450 nm absorbance by PHomo Microplate Reader (Autobio, China) The amount of pro-collagen 1 was quantified by extrapolating the signal into a linear range of a pro-collagen 1 standard curve. Screening compounds were typically tested at concentration of 150 and 250 µg/mL. The dose response data for each compound and the different cell lines were obtained by nonlinear regression analysis using Prism 9 software (GraphPad, La Jolla, USA).

SMILES	collagen reduction percentage in comparison to the standard (100 %) (HRO159N; 48h) [%]	collagen reduction percentage in comparison to the standard (100 %) (HRO159N; 72 h) [%]	collagen reduction percentage in comparison to the standard (100 %) (GM637; 48h, 150 µg) [%]	collagen reduction percentage in comparison to the standard (100 %) (GM637; 48h, 250 µg) [%]	collagen reduction percentage in comparison to the standard (100 %) (GM637; 72 h, 150 µg) [%]	collagen reduction percentage in comparison to the standard (100 %) (GM637; 72 h, 250 µg) [%]	collagen reduction percentage in comparison to the standard (100 %) (UKE1; 48h, 150 µg) [%]	collagen reduction percentage in comparison to the standard (100 %) (UKE1; 48h, 250 µg) [%]	collagen reduction percentage in comparison to the standard (100 %) (UKE1; 72 h, 150 µg) [%]	collagen reduction percentage in comparison to the standard (100 %) (UKE1; 72 h, 250 µg) [%]	collagen reduction percentage in comparison to the standard (100 %) (MRCVI; 48h, 150 µg) [%]	collagen reduction percentage in comparison to the standard (100 %) (MRCVI; 48h, 250 µg) [%]	collagen reduction percentage in comparison to the standard (100 %) (MRCVI; 72 h, 150 µg) [%]	collagen reduction percentage in comparison to the standard (100 %) (MRCVI; 72 h, 250 µg) [%]
CC(C)Oc1nn2nnnc2c2c(Cl)cccc12 [Compound 44, 10-chloro-6-isopropoxytetrazolo[5,1-a]phthalazine]	72	79	122	89	61	65	122	89	61	65				
c1ccc2c(c1)cnn1cnnc21 [Compound 10, 1,2,4-Triazolo[3,4-a]phthalazine]											67	52	48	25
[2H]C([2H])([2H])c1nnc2c3ccccc3cnn12 [Compound 7, 3-D3-Methyl-1,2,4-triazolo[3,4-a]phthalazine]	43	33	101	75	43	30	79	54	44	47	19	9	14	3
c1nn2nnnc2c2cscc12 [Compound 17, Tetrazolo[1,5-b]thieno[3,4-d]pyridazine]	34	4	90	62	103	55	102	86	76	59	33	16	35	11
Cc1nnc2c3cscc3cnn12 [Compound 16, 3-Methylthieno[3,4-d][1,2,4]triazolo[4,3-b]pyridazine]	79	48	79	62	86	55	117	99	82	35	72	43	82	35
c1ccc2c(c1)cnn1nnnc21 [Compound 1, Tetrazolor5,1-alphthalazine]	57	72	127	77	95	92	70	85	74	68	87	78	74	61
FC(F)(F)c1nnc2c3ccccc3cnn12 [Compound 5, 3-Trifluoromethyl-1,2,4-triazolo[3,4-a]phthalazine]			114	89	70	105	107	99	94	62	97	107	56	108
Cc1nnc2c3ccc(C(F)(F)F)cc3cnn12 [Compound 36, 3-Methyl-8-(trifluoromethyl)-[1,2,4]triazolo[3,4-a]phthalazine]											64	68	36	22
